The test system of assay [1] is Sinapis alba, Chrysanthemum segetum, Avena sativa, Stellaria media, Echinochloa crus-galli, Lolium multiflorum, Setaria spp., Abutilon theophrasti, Amaranthus …. The assay is described as follows: Pre-emergence effect on weeds (greenhouse pot test, visual scoring). The format is in vivo, mono- and dicotyledonous weed plants. Particulars: application rate of 1 kg or less of active substance per hectare; visually scored after 3 to 4 weeks vs untreated controls. The source says: Seeds or rhizome pieces of mono- and dicotyledonous weed plants were placed in sandy loam soil in plastic pots and covered with soil. The compounds according to the invention, formulated in the form of wettable powders or emulsion concentrates, were then applied to the soil cover in the form of aqueous suspensions or emulsions at an application rate of 600 to 800 l of water/ha (converted), in various dosages. After the treatment, the pots were placed in a greenhouse and kept under good growth conditions for the weeds. After the test plants had emerged, the damage to the plants or the negative effect on the emergence was visually scored after a test period of 3 to 4 weeks by comparison with untreated controls. As shown by the test results, the compounds according to the invention have good herbicidal pre-emergence activity against a broad spectrum of week grasses and broad-leaved weeds.

In assay [2] the test system is Sinapis alba, Echinochloa crus-galli, Lolium multiflorum, Chrysanthemum segetum, Setaria spp., Abutilon theophrastic, Amaranthus retroflexus, Panicum miliaceum …. Put plainly: Post-emergence effect on weeds (greenhouse pot test, visual scoring). Particulars: application rate of 1 kg or less of active substance per hectare; treated at three-leaf stage; scored visually after about 3 to 4 weeks. The format is in vivo, mono- and dicotyledonous weeds. As for the experimental part: Seeds or rhizome pieces of mono- and dicotyledonous weeds were placed in sandy loam soil in plastic pots, covered with soil and grown in a greenhouse under good growth conditions. Three weeks after sowing, the test plants were treated at the three-leaf stage. The compounds according to the invention, formulated as wettable powders or emulsion concentrates, were sprayed, at various dosages, onto the green parts of the plants at an application rate of 600 to 800 l of water/ha (converted). After the test plants had remained in the greenhouse for about 3 to 4 weeks under optimum growth conditions, the effect of the preparations was scored visually by comparison with untreated controls. The agents according to the invention also have good herbicidal activity post-emergence against a broad spectrum of economically important weed grasses and broad-leaved weeds.

In the case of `CCN(Cc1cccc(Oc2cc(C(F)(F)F)nn2C)n1)S(C)(=O)=O` [Example 4], the “herbicidal activity pre-emergence against weed plants” value in assay [1] is reported as “very good herbicidal activity”. The “herbicidal activity post-emergence against weed plants” value in assay [2] is “very good herbicidal activity”.

These data come from patent US20030229125A1, “Herbicidal substituted pyridines, their preparation, and their use as herbicides and plant growth regulators” (priority 2001, published 2003).
